For test [1], the system named is TNFα production in LPS-stimulated human monocytes. As to the kind of experiment: Cot Monocyte TNFα Cell Based Assay. Conditions: read-out: EC50 TNF. In outline: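 Percent-of-control values derive from TR-FRET ratios of TNFα in spun-down media, referenced to unstimulated and LPS-stimulated wells. Exposure: 1 h compound preincubation, then 50 pg/ml LPS for 4 h, both at 37 °C, with 0.5% final DMSO.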

Test [2] deals with T1, human Cot catalytic domain (30-397 amino acids) (Homo sapiens, UniProt P41279).
T1 construct: Purified recombinant human Cot catalytic domain (30-397 amino acids) was purchased from Cama Biosciences; purchased Cama Biosciences (so in the source)
T1 sequence (P41279 30-397): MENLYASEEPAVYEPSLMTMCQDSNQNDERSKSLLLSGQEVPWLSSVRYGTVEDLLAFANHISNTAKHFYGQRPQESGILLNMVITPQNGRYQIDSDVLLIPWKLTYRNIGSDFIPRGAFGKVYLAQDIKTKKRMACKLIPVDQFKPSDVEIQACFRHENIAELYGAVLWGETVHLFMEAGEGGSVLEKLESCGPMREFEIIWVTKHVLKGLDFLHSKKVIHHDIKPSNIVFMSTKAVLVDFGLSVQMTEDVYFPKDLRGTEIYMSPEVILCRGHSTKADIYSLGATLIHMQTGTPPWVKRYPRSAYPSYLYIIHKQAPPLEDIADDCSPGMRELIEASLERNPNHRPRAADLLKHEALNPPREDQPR
Kind of test: High Throughput Cot Biochemical Assay (KinEASE TR-FRET). Conditions: read-out: IC50 HTRF. In outline:
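Phosphorylation of 1 μM XL665-STK3 peptide by 5 nM Cot catalytic domain was measured by time-resolved FRET using a europium […] antibody. ATP was 400 μM; buffer was 10 mM MOPS pH 7.0 with Mg2+ and DTT.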
A general note: Time-resolved FRET reads energy transfer from a long-lived donor to a nearby acceptor.

[3] abbreviates: Homo sapiens, Monocyte, LPS-stimulated human monocytes, TNFα TR-FRET.
The mark [4] stands for this setting: Cot KinEASE TR-FRET, 400 μM ATP.
Setting [5] is: Homo sapiens, Monocyte, TNFα in LPS-stimulated human monocytes.
Setting [6] is: Cot KinEASE TR-FRET (HTRF) biochemical assay, 400 μM ATP.
The mark [7] stands for this setting: Cot biochemical HTRF (KinEASE TR-FRET) assay.

Like-named read-outs stand apart in the source and are kept apart here.

By EC50 is commonly meant the concentration at which the effect is half-maximal. One may read the IC50 as the concentration needed to halve the response being measured. For `Cc1c([C@H](Nc2cc(C#N)c3ncc(C#N)c(NCC(C)(C)C)c3c2)c2cn(C3(C(F)(F)F)CC3)nn2)cccc1-n1cnnn1` [Example 1081, (S)-6-(((2-methyl-3-(1H-tetrazol-1-yl)phenyl)(1-(1-(trifluoromethyl)cyclopropyl)-1H-1,2,3-triazol-4-yl)methyl)amino)-4-(neopentylamino)quinoline-3,8-dicarbonitrile], the EC50 in test [1] (setting [3]) worked out at 219 nM. The IC50 in test [2] (setting [4]) is 3 nM.
For `CC(C)(C)CNc1c(C#N)cnc2c(C#N)cc(N[C@@H](c3ccc(F)cc3)c3cn(C4(C#N)CC4)nn3)cc12` [Example 976, (S)-6-(((1-(1-cyanocyclopropyl)-1H-1,2,3-triazol-4-yl)(4-fluorophenyl)methyl)amino)-4-(neopentylamino)quinoline-3,8-dicarbonitrile] the same measures were 58 nM and 6 nM.
For `[2H][C@](Nc1cc(Cl)c2ncc(C#N)c(Nc3cnc(F)c(F)c3)c2c1)(c1ccc(F)cc1)c1cnn(CF)n1` [Example 330, (S)-8-chloro-4-((5,6-difluoropyridin-3-yl)amino)-6-(((2-(fluoromethyl)-2H-1,2,3-triazol-4-yl)(4-fluorophenyl)methyl-d)amino)quinoline-3-carbonitrile], the EC50 in test [1] (setting [5]) is over 10000 nM. In addition, in test [2] (setting [6]), the IC50 is 1420 nM.
Consider `CC(C)(C)N1CCC(n2cc([C@@H](Nc3cc(Cl)c4ncc(C#N)c(Nc5ccc(F)c(Cl)c5)c4c3)c3cccc(C(=O)N4CC(F)(F)C4)c3)nn2)CC1` [Example 645, (S)-6-(((1-(1-(tert-butyl)piperidin-4-yl)-1H-1,2,3-triazol-4-yl)(3-(3,3-difluoroazetidine-1-carbonyl)phenyl)methyl)amino)-8-chloro-4-((3-chloro-4-fluorophenyl)amino)quinoline-3-carbonitrile], for which the EC50 in test [1] (setting [5]) amounted to 41 nM. For the same compound, the IC50 in test [2] (setting [7]) is 2 nM.
With `Cc1c([C@H](Nc2cc(C#N)c3ncc(C#N)c(NCC(C)(C)C)c3c2)c2cn(C3(C(F)(F)F)CC3)nn2)cccc1-n1ccnc1` [Example 1042], the EC50 in test [1] (setting [3]) came to 105 nM. The IC50 in test [2] (setting [4]) worked out at 2 nM.
Regarding `N#CCC[C@@H](Nc1c(C#N)cnc2c(Cl)cc(N[C@H](c3cn(C(F)(F)CO)nn3)c3ccccc3Cl)cc12)c1ccccc1` [Example 67, 8-chloro-6-(((S)-(2-chlorophenyl)(1-(1,1-difluoro-2-hydroxyethyl)-1H-1,2,3-triazol-4-yl)methyl)amino)-4-(((R)-3-cyano-1-phenylpropyl)amino) quinoline-3-carbonitrile], the EC50 in test [1] (setting [5]) stood at 41 nM. Further, the IC50 in test [2] (setting [6]) is 2 nM.
`Cc1c(-c2cn(C)cn2)cccc1[C@H](Nc1cc(Cl)c2ncc(C#N)c(NCC(C)(C)C)c2c1)c1cn(C2(C(F)(F)F)CC2)nn1` [Example 1119, (S)-8-chloro-6-(((2-methyl-3-(1-methyl-1H-imidazol-4-yl)phenyl)(1-(1-(trifluoromethyl)cyclopropyl)-1H-1,2,3-triazol-4-yl)methyl)amino)-4-(neopentylamino)quinoline-3-carbonitrile]: the EC50 in test [1] (setting [3]) was found to be 351 nM. Moreover, the IC50 in test [2] (setting [4]) was 11 nM.
Turning to `CC[C@@H](Nc1c(C#N)cnc2c(Cl)cc(N[C@@H](c3ccc(F)cc3)c3cn(C(C)C)nn3)cc12)c1ccc(C)cc1` [Example 365, 8-chloro-6-(((S)-(4-fluorophenyl)(1-isopropyl-1H-1,2,3-triazol-4-yl)methyl)amino)-4-(((R)-1-(p-tolyl)propyl)amino)quinoline-3-carbonitrile], the EC50 in test [1] (setting [5]) came to 9330 nM. The IC50 in test [2] (setting [6]) came to 868 nM.
`N#Cc1cnc2c(Cl)cc(N[C@@H](c3ccccc3)c3cn(CCN4CCCC4)nn3)cc2c1Nc1ccc(F)c(Cl)c1` [Example 546, (S)-8-chloro-4-((3-chloro-4-fluorophenyl)amino)-6-((phenyl (1-(2-(pyrrolidin-1-yl)ethyl)-1H-1,2,3-triazol-4-yl)methyl)amino)quinoline-3-carbonitrile]: the EC50 in test [1] (setting [5]) worked out at 200 nM. Also, the half-inhibitory concentration (IC50) in test [2] (setting [7]) worked out at 8 nM.
As to `CC(C)n1cc([C@@H](Nc2cc(Cl)c3ncc(C#N)c(NC4CCN(C)CC4)c3c2)c2ccccc2)nn1` [Example 541, (S)-8-chloro-6-(((1-isopropyl-1H-1,2,3-triazol-4-yl)(phenyl)methyl)amino)-4-((1-methylpiperidin-4-yl)amino)quinoline-3-carbonitrile], the EC50 in test [1] (setting [5]) was over 10000 nM. In addition, the IC50 in test [2] (setting [7]) is 7310 nM.
Turning to `[2H][C@](Nc1cc(Cl)c2ncc(C#N)c(NC3(C#N)CC3)c2c1)(c1ccc(F)cc1)c1cn(C2CC2)nn1` [Example 217, (S)-8-chloro-4-((1-cyanocyclopropyl)amino)-6-(((1-cyclopropyl-1H-1,2,3-triazol-4-yl)(4-fluorophenyl)methyl-d)amino)quinoline-3-carbonitrile], the EC50 in test [1] (setting [5]) was determined as 3580 nM. Besides, the IC50 in test [2] (setting [6]) was 327 nM.
For `CC(C)(C)CNc1c(C#N)cnc2c(C#N)cc(N[C@@H](c3cccc(C4(C#N)CC4)c3)c3cn(C45CC(C4)C5)nn3)cc12` [Example 1129, (S)-6-(((1-(bicyclo[1.1.1]pentan-1-yl)-1H-1,2,3-triazol-4-yl)(3-(1-cyanocyclopropyl)phenyl)methyl)amino)-4-(neopentylamino)quinoline-3,8-dicarbonitrile], the EC50 in test [1] (setting [3]) was 148 nM. Moreover, in test [2] (setting [4]), the IC50 stood at 5 nM.
In the case of `N#Cc1cnc2c(Cl)cc(N[C@H](c3c[nH]nn3)c3ccc(F)cc3Cl)cc2c1Nc1cnc(F)c(F)c1` [Example 422, (S)-8-chloro-6-(((2-chloro-4-fluorophenyl)(1H-1,2,3-triazol-4-yl)methyl)amino)-4-((5,6-difluoropyridin-3-yl)amino)quinoline-3-carbonitrile], the EC50 in test [1] (setting [5]) amounted to 1350 nM. For the same compound, the IC50 in test [2] (setting [7]) came to 48 nM.
With `CC(C)(C)n1cc([C@@H](Nc2cc(Cl)c3ncc(C#N)c(Nc4cnc(F)c(F)c4)c3c2)c2ccc(F)cc2)nn1` [Example 457, (S)-6-(((1-(tert-butyl)-1H-1,2,3-triazol-4-yl)(4-fluorophenyl)methyl)amino)-8-chloro-4-((5,6-difluoropyridin-3-yl)amino)quinoline-3-carbonitrile], in test [1] (setting [5]), the EC50 came to 616 nM. In addition, in test [2] (setting [7]), the IC50 turned out to be 43 nM.
As to `[2H][C@](Nc1cc(Cl)c2ncc(C#N)c(N[C@H](CC#N)c3ccccc3)c2c1)(c1cccc(C#N)c1)c1cn(C2CC2)nn1` [Example 296, 8-chloro-4-(((R)-2-cyano-1-phenylethyl)amino)-6-(((S)-(3-cyanophenyl)(1-cyclopropyl-1H-1,2,3-triazol-4-yl)methyl-d)amino)quinoline-3-carbonitrile], the EC50 in test [1] (setting [5]) was found to be 44 nM. The half-maximal inhibitory concentration (IC50) in test [2] (setting [6]) stood at 2 nM.
As for `N#Cc1cnc2c(Cl)cc(N[C@@H](c3ccc(F)cc3)c3c[nH]nn3)cc2c1NC1CCCC(O)C1` (stereo partly drawn) [Example 439, 8-chloro-6-(((S)-(4-fluorophenyl)(1H-1,2,3-triazol-4-yl)methyl)amino)-4-((3-hydroxycyclohexyl)amino) quinoline-3-carbonitrile], the EC50 in test [1] (TNFα in LPS-stimulated human monocytes) is over 10000 nM. For the same compound, the IC50 in test [2] (setting [7]) came out at 2960 nM.
For the compound `CC(F)(F)CNc1c(C#N)cnc2c(Cl)cc(N[C@@H](c3ccc(F)cc3)c3cn(C4CC4)nn3)cc12` [Example 349, (S)-8-chloro-6-(((1-cyclopropyl-1H-1,2,3-triazol-4-yl)(4-fluorophenyl)methyl)amino)-4-((2,2-difluoropropyl)amino)quinoline-3-carbonitrile], the EC50 in test [1] (setting [5]) was determined as 687 nM. The IC50 in test [2] (setting [6]) amounted to 131 nM.
Taken in the same sequence, the figures for `[2H][C@](Nc1cc(Cl)c2ncc(C#N)c(N[C@H](CCC#N)c3ccccc3)c2c1)(c1cccc(C#N)c1)c1cn(C(F)(F)CO)nn1` [Example 51, 8-chloro-4-(((R)-3-cyano-1-phenylpropyl)amino)-6-(((S)-(3-cyanophenyl) (1-(1,1-difluoro-2-hydroxyethyl)-1H-1,2,3-triazol-4-yl)methyl-d)amino) quinoline-3-carbonitrile] were 57 nM and 1 nM.
Taken in the same sequence, the figures for `[2H][C@](Nc1cc(C(C)=O)c2ncc(C#N)c(NCC(C)(C)C)c2c1)(c1ccc(F)cc1)c1cn(C2CC2)nn1` [Compound 11] were 98 nM and 5 nM.
`CC(C)(C)N1CCC(n2cc([C@@H](Nc3cc(Cl)c4ncc(C#N)c(Nc5ccc(Cl)cc5)c4c3)c3ccc(Cl)cc3)nn2)CC1` [Example 740, (S)-6-(((1-(1-(tert-butyl)piperidin-4-yl)-1H-1,2,3-triazol-4-yl)(4-chlorophenyl)methyl)amino)-8-chloro-4-((4-chlorophenyl)amino)quinoline-3-carbonitrile]: in test [1] (setting [5]), the EC50 worked out at 5550 nM. In addition, the IC50 in test [2] (setting [7]) is 244 nM.
Regarding `[2H][C@](Nc1cc(C#N)c2ncc(C#N)c(Nc3cnc(F)c(F)c3)c2c1)(c1ccc(F)cc1)c1cn(C2CC2)nn1` [Example 351, (S)-6-(((1-cyclopropyl-1H-1,2,3-triazol-4-yl)(4-fluorophenyl)methyl-d)amino)-4-((5,6-difluoropyridin-3-yl)amino)quinoline-3,8-dicarbonitrile], in test [1] (setting [5]), the EC50 was determined as 206 nM. In addition, the IC50 in test [2] (setting [6]) turned out to be 6 nM.

These data come from patent US10316017B2, “COT modulators and methods of use thereof” (Gilead Sciences, Inc., priority 2015, dated 2019).
